Assay results taken from US5698522A, “6-position modified decapeptide LHRH antagonists” (Abbott Laboratories, priority 1995, dated 1997).
Where a SMILES comes first, the peptide text is derived from it. Side-chain parts run from the residue outwards. [ ]: non-standard residue; d: D form. The star is where a group is joined. NMePhe(4-NH(5-NH2-Trz-3-yl)) = CN[C@@H](Cc1ccc(Nc2n[nH]c(N)n2)cc1)C(=O)O; Shikimoyl = O=C(C1=C[C@@H](O)[C@@H](O)[C@H](O)C1)*; Quinoline4carbonyl = O=C(c1ccnc2ccccc12)*; dPhe(4-Cl) = N[C@H](Cc1ccc(Cl)cc1)C(=O)O; d2Nal = N[C@H](Cc1ccc2ccccc2c1)C(=O)O; Lys(iPr) = CC(C)NCCCC[C@H](N)C(=O)O; NMeY = CN[C@@H](Cc1ccc(O)cc1)C(=O)O; hArg = N=C(N)NCCCC[C@H](N)C(=O)O; d3Pal = N[C@H](Cc1cccnc1)C(=O)O; Salicyloyl = O=C(c1ccccc1O)*; Nicotinoyl = O=C(c1cccnc1)*; dOrn = NCCC[C@@H](N)C(=O)O; 2Furoyl = O=C(c1ccco1)*; Ava = NCCCCC(=O)O; azaGly = NNC(=O)O; βAla = NCCC(=O)O; Sar = CNCC(=O)O

Target: T1, LHRH receptor (Rattus norvegicus, UniProt P30969)
T1 construct: endogenous in cells
T1 sequence (P30969 1-327): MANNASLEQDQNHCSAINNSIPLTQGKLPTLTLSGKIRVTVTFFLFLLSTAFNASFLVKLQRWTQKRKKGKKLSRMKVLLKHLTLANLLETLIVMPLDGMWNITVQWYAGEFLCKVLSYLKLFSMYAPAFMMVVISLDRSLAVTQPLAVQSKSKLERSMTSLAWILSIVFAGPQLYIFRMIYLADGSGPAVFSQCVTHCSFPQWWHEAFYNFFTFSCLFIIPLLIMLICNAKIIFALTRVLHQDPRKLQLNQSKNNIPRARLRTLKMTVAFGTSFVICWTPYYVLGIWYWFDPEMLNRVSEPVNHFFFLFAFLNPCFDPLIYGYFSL
Test: in vitro LHRH antagonist potency (pA2) against the agonist leuprolide
Type: cell-based
Settings: negative logarithm of the antagonist concentration which shifts the response curve produced by the agonist leuprolide to two-fold higher concentration
Summary of the method: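 Functional antagonism against the agonist leuprolide. pA2 is the negative log of antagonist concentration that shifts the leuprolide response curve to twofold higher concentration.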

`CC(=O)N[C@H](Cc1ccc2ccccc2c1)C(=O)N[C@H](Cc1ccc(Cl)cc1)C(=O)N[C@H](Cc1cccnc1)C(=O)N[C@@H](CO)C(=O)N(C)[C@@H](Cc1ccc(O)cc1)C(=O)N[C@H](CCCCNC(=O)CN(C)C(=O)c1cccnc1)C(=O)N[C@@H](CC(C)C)C(=O)N[C@@H](CCCCNC(C)C)C(=O)N1CCC[C@H]1C(=O)N[C@H](C)C(N)=O` [Example 4d, NAc-D2Nal^1 -D4ClPhe^2 -D3Pal^3 -Ser^4 -NMeTyr^5 -DLys(N-epsilon-Sar-Nicotinyl)^6 -Leu^7 -Lys(N-epsilon-Isopropyl)^8 -Pro^9 -DAla^10 NH2] (Ac-[d2Nal][dPhe(4-Cl)][d3Pal]S[NMeY][dK]([Sar-Nicotinoyl])L[Lys(iPr)]P[dA]-NH2) showed a Kb of 13.8 pM.
`CC(=O)N[C@H](Cc1ccc2ccccc2c1)C(=O)N[C@H](Cc1ccc(Cl)cc1)C(=O)N[C@H](Cc1cccnc1)C(=O)N[C@@H](CO)C(=O)N(C)[C@@H](Cc1ccc(O)cc1)C(=O)N[C@H](CCCCNC(=O)CNC(=O)c1ccccc1O)C(=O)N[C@@H](CC(C)C)C(=O)N[C@@H](CCCCNC(C)C)C(=O)N1CCC[C@H]1C(=O)N[C@H](C)C(N)=O` [Example 19b, NAc-D2Nal^1 -D4ClPhe^2 -D3Pal^3 -Ser^4 -NMeTyr^5 -DLys[N-epsilon-Gly-Salicyl]^6 -Leu^7 -Lys(N-epsilon-Isopropyl)^8 -Pro^9 -DAla^10 NH2] (Ac-[d2Nal][dPhe(4-Cl)][d3Pal]S[NMeY][dK]([Gly-Salicyloyl])L[Lys(iPr)]P[dA]-NH2) was tested, and the Kb was 6.61 pM.
`CC(=O)N[C@H](CO)C(=O)NCCCC[C@@H](NC(=O)[C@H](Cc1ccc(O)cc1)N(C)C(=O)[C@H](CO)NC(=O)[C@@H](Cc1cccnc1)NC(=O)[C@@H](Cc1ccc(Cl)cc1)NC(=O)[C@@H](Cc1ccc2ccccc2c1)NC(C)=O)C(=O)N[C@@H](CC(C)C)C(=O)N[C@@H](CCCCNC(=N)N)C(=O)N1CCC[C@H]1C(=O)N[C@H](C)C(N)=O` [Example 13, NAc-D2Nal^1 -D4ClPhe^2 -D3Pal^3 -Ser^4 -NMeTyr^5 -DLys(N-epsilon-DSer-Acetyl)^6 -Leu^7 -Harg^8 -Pro^9 -DAla^10 NH2] (Ac-[d2Nal][dPhe(4-Cl)][d3Pal]S[NMeY][dK]([dS-Ac])L[hArg]P[dA]-NH2) showed a Kb of 7.94 pM.
In the case of `CC(=O)N[C@H](Cc1ccc2ccccc2c1)C(=O)N[C@H](Cc1ccc(Cl)cc1)C(=O)N[C@H](Cc1cccnc1)C(=O)N[C@@H](CO)C(=O)N(C)[C@@H](Cc1ccc(O)cc1)C(=O)N[C@H](CCCCNC(=O)NNC(=O)c1ccco1)C(=O)N[C@@H](CC(C)C)C(=O)N[C@@H](CCCCNC(C)C)C(=O)N1CCC[C@H]1C(=O)N[C@H](C)C(N)=O` [Example 2, NAc-D2Nal^1 -D4ClPhe^2 -D3Pal^3 -Ser^4 -NMeTyr^5 -DLys(N-epsilon-Azagly-2-Furoyl)^6 -Leu^7 -Lys(N-epsilon-Isopropyl)^8 -Pro^9 -DAla^10 NH2] (Ac-[d2Nal][dPhe(4-Cl)][d3Pal]S[NMeY][dK]([azaGly-2Furoyl])L[Lys(iPr)]P[dA]-NH2), the Kb is reported as 1.41 pM.
`CC(=O)N[C@H](Cc1ccc2ccccc2c1)C(=O)N[C@H](Cc1ccc(Cl)cc1)C(=O)N[C@H](Cc1cccnc1)C(=O)N[C@@H](CO)C(=O)N(C)[C@@H](Cc1ccc(O)cc1)C(=O)N[C@H](CCCCNC(=O)CCNC(=O)C1=C[C@@H](O)[C@@H](O)[C@H](O)C1)C(=O)N[C@@H](CC(C)C)C(=O)N[C@@H](CCCNC(=N)N)C(=O)N1CCC[C@H]1C(=O)N[C@H](C)C(N)=O` [Example 48g, NAc-D2Nal^1 -D4ClPhe^2 -D3Pal^3 -Ser^4 -NMeTyr^5 -DLys(N-epsilon-Beta-alanyl-Shikimyl)^6 -Leu^7 -Arg^8 -Pro^9 -DAla^10 NH2] (Ac-[d2Nal][dPhe(4-Cl)][d3Pal]S[NMeY][dK]([βAla-Shikimoyl])LRP[dA]-NH2) was tested, and the Kb was 12.6 pM.
With `CC(=O)N[C@H](Cc1ccc2ccccc2c1)C(=O)N[C@H](Cc1ccc(Cl)cc1)C(=O)N[C@H](Cc1cccnc1)C(=O)N[C@@H](CO)C(=O)N(C)[C@@H](Cc1ccc(O)cc1)C(=O)N[C@H](CCCCNC(=O)[C@@H](Cc1cccnc1)NC(=O)C1=C[C@@H](O)[C@@H](O)[C@H](O)C1)C(=O)N[C@@H](CC(C)C)C(=O)N[C@@H](CCCNC(=N)N)C(=O)N1CCC[C@H]1C(=O)N[C@H](C)C(N)=O` [Example 38f, NAc-D2Nal^1 -D4ClPhe^2 -D3Pal^3 -Ser^4 -NMeTyr^5 -DLys(N-epsilon-D3Pal-Shikimyl)^6 -Leu^7 -Arg^8 -Pro^9 -DAla^10 NH2] (Ac-[d2Nal][dPhe(4-Cl)][d3Pal]S[NMeY][dK]([d3Pal-Shikimoyl])LRP[dA]-NH2) the Kb was 21.4 pM.
In the case of `CC(=O)N[C@H](Cc1ccc2ccccc2c1)C(=O)N[C@H](Cc1ccc(Cl)cc1)C(=O)N[C@H](Cc1cccnc1)C(=O)N[C@@H](CO)C(=O)N(C)[C@@H](Cc1ccc(O)cc1)C(=O)N[C@H](CCCNC(=O)[C@@H](CO)NC(=O)C1=C[C@@H](O)[C@@H](O)[C@H](O)C1)C(=O)N[C@@H](CC(C)C)C(=O)N[C@@H](CCCNC(=N)N)C(=O)N1CCC[C@H]1C(=O)N[C@H](C)C(N)=O` [Example 49d, NAc-D2Nal^1 -D4ClPhe^2 -D3Pal^3 -Ser^4 -NMeTyr^5 -DOrn(N-epsilon-DSer-Shikimyl)^6 -Leu^7 -Arg^8 -Pro^9 -DAla^10 NH2] (Ac-[d2Nal][dPhe(4-Cl)][d3Pal]S[NMeY][dOrn]([dS-Shikimoyl])LRP[dA]-NH2), the Kb is reported as 1.66 pM.
`CC(=O)N[C@H](Cc1ccc2ccccc2c1)C(=O)N[C@H](Cc1ccc(Cl)cc1)C(=O)N[C@H](Cc1cccnc1)C(=O)N[C@@H](CO)C(=O)N(C)[C@@H](Cc1ccc(O)cc1)C(=O)N[C@H](CCCCNC(=O)CCCCNC(=O)c1cccnc1)C(=O)N[C@@H](CC(C)C)C(=O)N[C@@H](CCCCNC(C)C)C(=O)N1CCC[C@H]1C(=O)N[C@H](C)C(N)=O` [Example 43, NAc-D2Nal^1 -D4ClPhe^2 -D3Pal^3 -Ser^4 -NMeTyr^5 -DLys(N-epsilon-5-Aminovaleryl-Nicotinyl)^6 -Leu^7 -Lys(N-epsilon-Isopropyl)^8 -Pro^9 -DAla^10 NH2] (Ac-[d2Nal][dPhe(4-Cl)][d3Pal]S[NMeY][dK]([Ava-Nicotinoyl])L[Lys(iPr)]P[dA]-NH2) showed a Kb of 8.51 pM.
Work on `CC(=O)N[C@H](Cc1ccc2ccccc2c1)C(=O)N[C@H](Cc1ccc(Cl)cc1)C(=O)N[C@H](Cc1cccnc1)C(=O)N[C@@H](CO)C(=O)N(C)[C@@H](Cc1ccc(O)cc1)C(=O)N[C@H](CCCCNC(=O)NNC(=O)c1cccnc1)C(=O)N[C@@H](CC(C)C)C(=O)N[C@@H](CCCCNC(C)C)C(=O)N1CCC[C@H]1C(=O)N(C)CC(N)=O` [Example 60, NAc-D2Nal^1 -D4ClPhe^2 -D3Pal^3 -Ser^4 -NMeTyr^5 -DLys(N-epsilon-Azagly-Nicotinyl)^6 -Leu^7 -Lys(N-epsilon-Isopropyl)^8 -Pro^9 -Sar^10 NH2] (Ac-[d2Nal][dPhe(4-Cl)][d3Pal]S[NMeY][dK]([azaGly-Nicotinoyl])L[Lys(iPr)]P[Sar]-NH2) yielded a Kb of 28.2 pM.
`CC(=O)N[C@H](Cc1ccc2ccccc2c1)C(=O)N[C@H](Cc1ccc(Cl)cc1)C(=O)N[C@H](Cc1cccnc1)C(=O)N[C@@H](CO)C(=O)N(C)[C@@H](Cc1ccc(O)cc1)C(=O)N[C@H](CCCCNC(=O)CNC(=O)c1ccnc2ccccc12)C(=O)N[C@@H](CC(C)C)C(=O)N[C@@H](CCCNC(=N)N)C(=O)N1CCC[C@H]1C(=O)N[C@H](C)C(N)=O` [Example 51d, NAc-D2Nal^1 -D4ClPhe^2 -D3Pal^3 -Ser^4 -NMeTyr^6 -DLys(N-epsilon-Gly-4-Quinolinyl)^6 -Leu^7 -Arg^8 -Pro^9 -DAla^10 NH2] (Ac-[d2Nal][dPhe(4-Cl)][d3Pal]S[NMeY][dK]([Gly-Quinoline4carbonyl])LRP[dA]-NH2) gave a Kb of 14.1 pM.
`CC(=O)N[C@H](Cc1ccc2ccccc2c1)C(=O)N[C@H](Cc1ccc(Cl)cc1)C(=O)N[C@H](Cc1cccnc1)C(=O)N[C@@H](CO)C(=O)N(C)[C@@H](Cc1ccc(Nc2n[nH]c(N)n2)cc1)C(=O)N[C@H](CCCCNC(=O)CNC(=O)c1cccnc1)C(=O)N[C@@H](CC(C)C)C(=O)N[C@@H](CCCCNC(C)C)C(=O)N1CCC[C@H]1C(=O)N[C@H](C)C(N)=O` [Example 45, NAc-D2Nal^1 -D4ClPhe^2 -D3Pal^3 -Ser^4 -NMePhe(Atz)^5 -DLys(N-epsilon-Gly-Nicotinyl)^6 -Leu^7 -Lys(N-epsilon-Isopropyl)^8 -Pro^9 -DAla^10 NH2] (Ac-[d2Nal][dPhe(4-Cl)][d3Pal]S[NMePhe(4-NH(5-NH2-Trz-3-yl))][dK]([Gly-Nicotinoyl])L[Lys(iPr)]P[dA]-NH2) gave a Kb of 4.17 pM.
Work on `CC(=O)N[C@H](Cc1ccc2ccccc2c1)C(=O)N[C@H](Cc1ccc(Cl)cc1)C(=O)N[C@H](Cc1cccnc1)C(=O)N[C@@H](CO)C(=O)N(C)[C@@H](Cc1ccc(O)cc1)C(=O)N[C@H](CCCCNC(=O)[C@@H](CO)NC(=O)CNC(=O)C1=C[C@@H](O)[C@@H](O)[C@H](O)C1)C(=O)N[C@@H](CC(C)C)C(=O)N[C@@H](CCCNC(=N)N)C(=O)N1CCC[C@H]1C(=O)N[C@H](C)C(N)=O` [Example 48j, NAc-D2Nal^1 -D4ClPhe^2 -D3Pal^3 -Ser^4 -NMeTyr^5 -DLys(N-epsilon-D-Ser-Gly-Shikimyl)^6 -Leu^7 -Arg^8 -Pro^9 -DAla^10 NH2] (Ac-[d2Nal][dPhe(4-Cl)][d3Pal]S[NMeY][dK]([dS-Gly-Shikimoyl])LRP[dA]-NH2) yielded a Kb of 17 pM.
